From US20230117324A1, “OXAZINE MONOACYLGLYCEROL LIPASE (MAGL) INHIBITORS” (Hoffmann-La Roche Inc., priority 2018, published 2023)

These compounds were tested against T1, MAGL (Homo sapiens, UniProt Q99685) (assay: MAGL inhibition, 2-AG assay (hydrolysis of 2-arachidonoylglycerol, arachidonic acid by mass spectrometry)). Conditions: 2-AG assay (footnote [b]).
T1 sequence (Q99685 1-303): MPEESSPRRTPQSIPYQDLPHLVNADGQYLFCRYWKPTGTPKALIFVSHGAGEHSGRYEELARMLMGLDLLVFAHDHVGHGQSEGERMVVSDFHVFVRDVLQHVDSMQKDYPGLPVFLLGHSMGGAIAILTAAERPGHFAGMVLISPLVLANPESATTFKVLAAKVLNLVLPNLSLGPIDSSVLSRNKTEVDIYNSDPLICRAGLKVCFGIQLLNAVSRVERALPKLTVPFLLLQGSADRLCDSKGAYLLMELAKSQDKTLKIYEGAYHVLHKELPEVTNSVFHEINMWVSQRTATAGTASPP
Type: biochemical
Protocol: Alternatively, compounds were profiled for MAGL inhibitory activity by determining the enzymatic activity by following the hydrolysis of the natural substrate 2-arachidonoylglycerol (2-AG) resulting in arachidonic acid, which can be followed by mass spectrometry. This assay is hereinafter abbreviated “2-AG assay”.
The 2-AG assay was carried out in 384 well assay plates (PP, Greiner Cat #784201) in a total volume of 20 μL. Compound dilutions were made in 100% DMSO (VWR Chemicals 23500.297) in a polypropylene plate in 3-fold dilution steps to give a final concentration range in the assay from 12.5 μM to […]. 0.25 μL compound dilutions (100% DMSO) were added to 9 μL MAGL in assay buffer (50 mM TRIS (GIBCO, 15567-027), 1 mM EDTA (Fluka, 03690-100 mL), 0.01% (v/v) Tween. After shaking, the plate was incubated for 15 min at RT. To start the reaction, 10 μL 2-arachidonoylglycerol in assay buffer was added. The final concentrations in the assay was […] and 8 μM 2-arachidonoylglyerol. After shaking and 30 min incubation at RT, the reaction was quenched by the addition of 40 μL of ACN containing 4 μM of d8-arachidonic acid. The amount of arachidonic acid was traced by an online SPE system (Agilent Rapidfire) coupled to a triple quadrupole mass spectrometer (Agilent 6460). A C18 SPE cartridge (G9205A) was used in an ACN/water liquid setup. The mass spectrometer was operated in negative electrospray mode following the mass transitions 303.1→259.1 for arachidonic acid and 311.1→267.0 for d8-arachidonic acid. The activity of the compounds was calculated based on the ratio of intensities [arachidonic acid/d8-arachidonic acid].

How did the IC50 turn out when `Cc1ccc(C(c2ccc(F)cc2)C2CCN(C(=O)N3CC[C@@H]4OCC(=O)N[C@@H]4C3)CC2)cc1` (single isomer, unassigned) [Example 72, (4aR,8aS)-6-(4-((R or S)-(4-Fluorophenyl)(p-tolyl)methyl)piperidine-1-carbonyl)hexahydro-2H-pyrido[4,3-b][1,4]oxazin-3(4H)-one] was run?
Its IC50 is 0.1 nM.

`COc1ccc(C(c2ccc(F)cc2)C2CCN(C(=O)N3CC[C@@H]4OCC(=O)N[C@@H]4C3)CC2)cc1OC` (single isomer, unassigned) [Example 73, (4aR,8aS)-6-(4-((S or R)-(3,4-Dimethoxyphenyl)(4-fluorophenyl)methyl)piperidine-1-carbonyl)hexahydro-2H-pyrido[4,3-b][1,4]oxazin-3(4H)-one] was tested. Which IC50 did it give?
The IC50 was 0.4 nM.

`COc1ccc(C(c2ccccc2)C2CCN(C(=O)N3CC[C@@H]4OCC(=O)N[C@@H]4C3)CC2)cc1OC` (single isomer, unassigned) [Example 74, (4aR,8aS)-6-(4-((R or S)-(3,4-Dimethoxyphenyl)(phenyl)methyl)piperidine-1-carbonyl)hexahydro-2H-pyrido[4,3-b][1,4]oxazin-3(4H)-one] was tested. Which IC50 did it give?
Its IC50 is 2 nM.

For `CC(Oc1ccc(C(F)(F)F)cc1Cl)C1CN(C(=O)N2CC[C@@H]3OCC(=O)N[C@@H]3C2)C1` (single isomer, unassigned) [Example 75, (4aR,8aS)-6-(3-(R or S)-(1-(2-chloro-4-(trifluoromethyl)phenoxy)ethyl)azetidine-1-carbonyl)hexahydro-2H-pyrido[4,3-b][1,4]oxazin-3(4H)-one], which IC50 is on record?
Its IC50 is 28 nM.

With `CC(Oc1ccc(C(F)(F)F)cc1Cl)C1CN(C(=O)N2CC[C@@H]3OCC(=O)N[C@@H]3C2)C1` (single isomer, unassigned) [Example 76, (4aR,8aS)-6-(3-(S or R)-(1-(2-Chloro-4-(trifluoromethyl)phenoxy)ethyl)azetidine-1-carbonyl)hexahydro-2H-pyrido[4,3-b][1,4]oxazin-3(4H)-one] as the compound, how does the IC50 read?
Its IC50 is 1 nM.

How did the IC50 turn out when `O=C1CO[C@H]2CCN(C(=O)N3CCC(C(c4ccccc4)c4ccc(OCCF)cc4)CC3)C[C@H]2N1` (single isomer, unassigned) [Example 79, (4aR,8aS)-6-[4-[(S or R)-[4-(2-Fluoroethoxy)phenyl]-phenylmethyl]piperidine-1-carbonyl]-4,4a,5,7,8,8a-hexahydropyrido[4,3-b][1,4]oxazin-3-one] was run?
Its IC50 is 0.2 nM.

Which IC50 does the source give for `Cc1ccc(C(c2ccccc2)C2CCN(C(=O)N3CC[C@@H]4OCC(=O)N[C@@H]4C3)CC2)cc1` (single isomer, unassigned) [Example 84, (4aR,8aS)-6-[4-[(S or R)-Phenyl(p-tolyl)methyl]piperidine-1-carbonyl]-4,4a,5,7,8,8a-hexahydropyrido[4,3-b][1,4]oxazin-3-one] here?
The IC50 was 0.1 nM.

For `Cc1ccc(C(c2ccccc2)C2CCN(C(=O)N3CC[C@@H]4OCC(=O)N[C@@H]4C3)CC2)cc1` (single isomer, unassigned) [Example 85, (4aR,8aS)-6-(4-((R or S)-Phenyl(p-tolyl)methyl)piperidine-1-carbonyl)hexahydro-2H-pyrido[4,3-b][1,4]oxazin-3(4H)-one], which IC50 is on record?
The IC50 was 0.1 nM.

Which IC50 does the source give for `COc1ccc(C(c2ccccc2)C2CCN(C(=O)N3CC[C@@H]4OCC(=O)N[C@@H]4C3)CC2)cc1OC` (single isomer, unassigned) [Example 87, (4aR,8aS)-6-(4-((S or R)-(3,4-Dimethoxyphenyl)(phenyl)methyl)piperidine-1-carbonyl)hexahydro-2H-pyrido[4,3-b][1,4]oxazin-3(4H)-one] here?
The IC50 was 0.4 nM.

How did the IC50 turn out when `COc1ccc(C(c2ccc(F)cc2)C2CCN(C(=O)N3CC[C@@H]4OCC(=O)N[C@@H]4C3)CC2)cc1OC` (single isomer, unassigned) [Example 88, (4aR,8aS)-6-(4-((R or S)-(3,4-Dimethoxyphenyl)(4-fluorophenyl)methyl)piperidine-1-carbonyl)hexahydro-2H-pyrido[4,3-b][1,4]oxazin-3(4H)-one] was run?
Its IC50 is 2.2 nM.

For `COc1ccc(C(c2ccc(F)cc2)C2CCN(C(=O)N3CC[C@@H]4OCC(=O)N[C@@H]4C3)CC2)cc1` (single isomer, unassigned) [Example 89, (4aR,8aS)-6-(4-((R or S)-(4-Fluorophenyl)(4-methoxyphenyl)methyl)piperidine-1-carbonyl)hexahydro-2H-pyrido[4,3-b][1,4]oxazin-3(4H)-one], which IC50 is on record?
The IC50 was 0.6 nM.

With `O=C1CO[C@H]2CCN(C(=O)N3CCC(C(c4ccc(F)cc4)c4nc(C5CC5)no4)CC3)C[C@H]2N1` (single isomer, unassigned) [Example 94, (4aR,8aS)-6-(4-((R or S)-(3-Cyclopropyl-1,2,4-oxadiazol-5-yl)(4-fluorophenyl)methyl)piperidine-1-carbonyl)hexahydro-2H-pyrido[4,3-b][1,4]oxazin-3(4H)-one] as the compound, how does the IC50 read?
The IC50 was 2 nM.

For `O=C1CO[C@H]2CCN(C(=O)N3CCC(C(c4ccc(F)cc4)c4nc(C5CC5)no4)CC3)C[C@H]2N1` (single isomer, unassigned) [Example 95, (4aR,8aS)-6-(4-((S or R)-(3-Cyclopropyl-1,2,4-oxadiazol-5-yl)(4-fluorophenyl)methyl)piperidine-1-carbonyl)hexahydro-2H-pyrido[4,3-b][1,4]oxazin-3(4H)-one], which IC50 is on record?
The IC50 was 16 nM.

With `CC(Oc1ccc(C(F)(F)F)cc1F)C1CN(C(=O)N2CC[C@@H]3OCC(=O)N[C@@H]3C2)C1` (single isomer, unassigned) [Example 96, (4aR,8aS)-6-(3-((R or S)-1-(2-Fluoro-4-(trifluoromethyl)phenoxy)ethyl)azetidine-1-carbonyl)hexahydro-2H-pyrido[4,3-b][1,4]oxazin-3(4H)-one] as the compound, how does the IC50 read?
Its IC50 is 44 nM.

Which IC50 does the source give for `CC(Oc1ccc(C(F)(F)F)cc1F)C1CN(C(=O)N2CC[C@@H]3OCC(=O)N[C@@H]3C2)C1` (single isomer, unassigned) [Example 97, (4aR,8aS)-6-(3-((S or R)-1-(2-Fluoro-4-(trifluoromethyl)phenoxy)ethyl)azetidine-1-carbonyl)hexahydro-2H-pyrido[4,3-b][1,4]oxazin-3(4H)-one] here?
The IC50 was 16 nM.

With `CC(Oc1ccc(C(F)(F)F)cc1)C1CN(C(=O)N2CC[C@@H]3OCC(=O)N[C@@H]3C2)C1` (single isomer, unassigned) [Example 98, (4aR,8aS)-6-(3-((R or S)-1-(4-(Trifluoromethyl)phenoxy)ethyl)azetidine-1-carbonyl)hexahydro-2H-pyrido[4,3-b][1,4]oxazin-3(4H)-one] as the compound, how does the IC50 read?
Its IC50 is 62 nM.

How did the IC50 turn out when `CC(Oc1ccc(C(F)(F)F)cc1)C1CN(C(=O)N2CC[C@@H]3OCC(=O)N[C@@H]3C2)C1` (single isomer, unassigned) [Example 99, (4aR,8aS)-6-(3-((S or R)-1-(4-(Trifluoromethyl)phenoxy)ethyl)azetidine-1-carbonyl)hexahydro-2H-pyrido[4,3-b][1,4]oxazin-3(4H)-one] was run?
Its IC50 is 27 nM.

How did the IC50 turn out when `O=C1CO[C@H]2CCN(C(=O)N3CCC(C(c4ccc(F)cc4)c4ccc(OCCF)cc4)CC3)C[C@H]2N1` (single isomer, unassigned) [Example 100, (4aR,8aS)-6-(4-((R or S)-(4-(2-Fluoroethoxy)phenyl)(4-fluorophenyl)methyl)piperidine-1-carbonyl)hexahydro-2H-pyrido[4,3-b][1,4]oxazin-3(4H)-one] was run?
The IC50 was 4 nM.

How did the IC50 turn out when `CC(c1ccc(C(F)(F)F)cc1)C1CN(C(=O)N2CC[C@@H]3OCC(=O)N[C@@H]3C2)C1` (single isomer, unassigned) [Example 103, (4aR,8aS)-6-(3-((S or R)-1-(4-(Trifluoromethyl)phenyl)ethyl)azetidine-1-carbonyl)hexahydro-2H-pyrido[4,3-b][1,4]oxazin-3(4H)-one] was run?
The IC50 was 99 nM.

Which IC50 does the source give for `CC(c1ccc(C(F)(F)F)cc1)C1CN(C(=O)N2CC[C@@H]3OCC(=O)N[C@@H]3C2)C1` (single isomer, unassigned) [Example 104, (4aR,8aS)-6-(3-((R or S)-1-(4-(Trifluoromethyl)phenyl)ethyl)azetidine-1-carbonyl)hexahydro-2H-pyrido[4,3-b][1,4]oxazin-3(4H)-one] here?
Its IC50 is 111 nM.

How did the IC50 turn out when `O=C1CO[C@H]2CCN(C(=O)N3CC(C(OCC(F)(F)F)c4ccc(F)cc4)C3)C[C@H]2N1` (single isomer, unassigned) [Example 105, (4aR,8aS)-6-[3-(S or R)-[(4-Fluorophenyl)-(2,2,2-trifluoroethoxy)methyl]azetidine-1-carbonyl]-4,4a,5,7,8,8a-hexahydropyrido[4,3-b][1,4]oxazin-3-one] was run?
Its IC50 is 434 nM.
